Data from patent publication US12527794B2, “Compositions, formulations, and methods for hair treatment” (Oddity Labs, LLC, priority 2021, dated 2026).

Columns and labels:
bacteria = assay: SOS chromotest (β-galactosidase activity); type: cell-based; settings: varying concentrations; 4-NQ as known genotoxin
Protocol: The SOS chromotest is a well-established bacteria-based test for genotoxicity.
(§1) The safety/toxicology profiles of a compound or salt of the present disclosure was evaluated via a series of in vitro genotoxicity assays, including the SOS-chromotest to determine bacterial genotoxicity, and the TK.6 micronucleus assay to determine chromosomal damage and forward mutations. Standard reactive oxygen species (ROS) and caspase 3/7 assay were conducted to determine general cellular toxicity. Moreover, a series of sensitization tests were conducted to predict any potential skin sensitivity. These include the direct peptide reactivity assay to evaluate haptenization, the KeratinoSens reporter assay to determine potential sensitivity via the activation of a cytoprotective pathway, and an immunological assay using human immature monocyte-derived dendritic cells to evaluate any potential immunogenicity.

HepG2 cells = assay: Caspase 3/7 activity in HepG2 cells; type: cell-based; settings: HepG2, >2-log concentration range
Protocol: (§2) Cells were treated with either the exemplary compounds or vehicle control containing correspondingly % v/v-matched amounts of DMSO spanning a >2-log concentration range. Data represents mean±s.d. and representative of at least 2 experimental replicates.
as §2, with “HepG2 cells are an immortalized liver cell line commonly used to study apoptosis induced by small molecules. Cells” for “Cells”

TK.6 lymphoblasts = assay: TK.6 micronucleus assay; type: cell-based
Protocol: as §1
TK.6 lymphoblasts are a well-studied cell line commonly used for gene mutation analyses. They are heterozygous for the thymidine kinase gene (TK) and enable the detection of forward mutations and chromosomal damage, which manifests as micronuclei and are detectable via flow cytometry.
TK.6 cells were dosed with the exemplary compounds or a vehicle control (0.1% v/v DMSO) and cultured with or without S9 metabolic activation for 24 hr. […] Methyl methanesulfonate, a known genotoxic, alkylating agent was used as a positive control for micronuclei detection.
The micronucleus assay was also performed to determine if the compounds are genotoxic by evaluating the presence of micronuclei. […] I-17 elicited genotoxicity at >3.125 μg/mL.

[1] = test system: human hair follicle dermal papilla cells (hFDPC); assay: Human follicle dermal papilla cell (hFDPC) proliferation, cell viability assay; type: cell-based; settings: hFDPCs supplemented with BIO, BMP-2 and FGFβ
Protocol: The ability of a compound or salt of the present disclosure to increase proliferation of human hair follicle dermal papilla cells (hFDPC) was tested using a cell viability assay, such as the Promega CellTiter-Glo® Luminescent Cell Viability Assay, MTT cell proliferation assay (ATCC® 30-1010K) or cell counting. […] In Table 8, A represents less than 20% of increased proliferation of hFDPCs, B represents 20-40%, and C represents larger than 40% of increased proliferation of hFDPCs. For this assay, hFDPCs were cultured on tissue culture-treated plastic and supplemented with 6-bromoindirubin-39-Oxime (BIO), recombinant bone morphogenetic protein-2 (BMP-2), and basic fibroblast growth factor (FGFβ), whose combination was previously found to preserve in situ dermal papilla gene signatures.

Nrf2-ARE pathway = assay: KeratinoSens Nrf2-ARE luciferase reporter assay; type: cell-based; settings: cinnamic aldehyde as known sensitizing compound
Protocol: The Nrf2-ARE pathway is a master regulator of cytoprotective responses to oxidative stress, and is an early indicator of skin sensitization. Nrf2 (nuclear factor erythroid 2-related factor) is a transcription factor that binds to antioxidant responsive elements (ARE). By fusing ARE to the light-producing luciferase gene, a KeratinoSens Nrf2-ARE reporter assay was performed whereby luciferase signal is directly correlated to Nrf2-ARE pathway activation.
Normalized ARE-luciferase activity was measured using a known sensitizing compound (cinnamic aldehyde) and exemplary compounds.

[2] = test system: follicle dermal papilla cells; assay: Reactive oxygen species (ROS) activity in follicle dermal papilla cells; type: cell-based; settings: 5 μg/mL, 24 hr, relative to vehicle control 0.1% v/v DMSO
Protocol: Normalized reactive oxygen species (ROS) activity in follicle dermal papilla cells were analyzed after treatment with 5 μg/mL exemplary compounds relative to vehicle control (0.1% v/v DMSO) after 24 hr. The increase in ROS levels is harmful on cell mhemeostasis, structures, and functions and results in oxidative stress.

[3] = test system: Human follicle papilla cells; assay: Functional stability across pH and temperature (follicle papilla cell proliferation); type: cell-based; settings: pre-treated 7 days in pH-adjusted water at varying temperatures; cells dosed 5 μg/mL, 48 hr
Protocol: FIGS. 7A and 7B show normalized proliferation follicle papilla cell proliferation after 48 hr following treatment with the exemplary compound (VII-3) pre-treated across a range of pH conditions (FIG. 7A) and temperature conditions (FIG. 7B). Data represents mean±s.d. and representative of n=2 donors.
An exemplary compound (VII-3) was prepared in various solvents (DMSO; dimethyl sulfoxide, DMI; dimethyl isosorbide, or a 1:1 mixture of dimethyl isosorbide and ethanol), the diluted in pH-adjusted water and left at varying temperatures for 7 days. Human follicle papilla cells were dosed at 5 μg/mL with the exemplary compound and further supplemented with 6-bromoindirubin-39-Oxime (BIO), recombinant bone morphogenetic protein-2 (BMP-2), and basic fibroblast growth factor (FGFβ), whose combination was previously found to preserve in vivo dermal papilla gene signatures. Normalized proliferation follicle papilla cell proliferation was analyzed after 48 hr following the treatment with the exemplary compound pre-treated across a range of pH conditions (FIG. 7A) and temperature conditions (FIG. 7B). Data represents mean±s.d. and representative of n=2 donors.

female subjects = assay: Clinical consumer perception study; type: in vivo, human; settings: 0.02% v/v water-based formula every 2 days, 6 weeks, 32 subjects completed
Protocol: Photographs were taken after 6 weeks. Subjects were female and ranged in age from 27-65 years. Subjects used a simple, water-based formula containing an exemplary compound (at 0.02% v/v) every 2 days in the morning or night on dry or towel-dried hair. Approximately 2 mL was applied directly to the hairline. No randomization was required for the study and subjects were blinded to the name of the test material.
The clinical test was performed by Eurofins|CRL, Inc. The test followed established, standardized procedures for clinical testing designed to ensure the well-being of clinical study subjects and the generation of reliable study data. Subjects were female and ranged in age from 27-65 years. Subjects used a simple, water-based formula containing a exemplary compound, VII-3 (at 0.02% v/v) every 2 days in the morning or night on dry or towel-dried hair. Approximately 2 mL was applied directly to the hairline. No randomization was required for the study and subjects were blinded to the name of the test material.
Photographs of subjects' hair were taken 6 weeks after the treatment with the representative compounds (FIG. 6). Subjects were female and ranged in age from 27-65 years. Subjects used a simple, water-based formula containing an exemplary compound VII-3 (at 0.02% v/v) every 2 days in the morning or night on dry or towel-dried hair. […]

CCC(=O)N1CCN(c2nnc(-c3ccc(C)cc3)c3ccccc23)CC1 [II-4, 1-Propanone, 1-[4-[4-(4-methylphenyl)-1-phthalazinyl]-1-piperazinyl]-]
genotoxic effects, normalized β-galactosidase activity (bacteria): did not exhibit any genotoxic effects
normalized caspase 3/7 activity (HepG2 cells): did not exhibit any caspase activation
micronuclei formation / genotoxic effect in TK.6 cells (TK.6 lymphoblasts): do not promote any micronuclei formation

C=CCc1cc(/C=C2\C(=O)NC(=S)N(c3ccc(OC)cc3)C2=O)cc(OC)c1O [Compound I-17, 4,6(1H,5H)-Pyrimidinedione, dihydro-5-[[4-hydroxy-3-methoxy-5-(2-propen-1-yl)phenyl]methylene]-1-(4-methoxyphenyl)-2-thioxo-]
Percent Increase Proliferation of hFDPCs (%) [1]: C (C represents larger than 40% of increased proliferation of hFDPCs)
normalized caspase 3/7 activity (HepG2 cells): significant caspase-3/7 activation at the highest concentration
concentration eliciting genotoxicity in TK.6 micronuclei assay (TK.6 lymphoblasts; 24 hr): > 3125 ng/mL

COC(=O)c1c(S(C)(=O)=O)[nH]c(-c2ccccc2)nc1=O [VII-1]
sensitizing potential, normalized ARE-luciferase activity (Nrf2-ARE pathway): exhibited sensitizing potential
genotoxic effects, normalized β-galactosidase activity (bacteria): did not exhibit any genotoxic effects
normalized caspase 3/7 activity (HepG2 cells): did not exhibit any caspase activation
micronuclei formation / genotoxic effect in TK.6 cells (TK.6 lymphoblasts): do not promote any micronuclei formation

C=CCc1cc(/C=C2\C(=O)NC(=S)N(c3ccccc3OC)C2=O)cc(OCC)c1O [Compound I-18, 4,6(1H,5H)-Pyrimidinedione, 5-[[3-ethoxy-4-hydroxy-5-(2-propen-1-yl)phenyl]methylene]dihydro-1-(2-methoxyphenyl)-2-thioxo-]
Percent Increase Proliferation of hFDPCs (%) [1]: B (B represents 20-40%)
normalized ROS level [2]: higher than other compounds

CSc1nc(-c2ccco2)nn1S(C)(=O)=O [VII-3, 1H-1,2,4-Triazole, 3-(2-furanyl)-1-(methylsulfonyl)-5-(methylthio)-]
functional stability (normalized follicle papilla cell proliferation after pre-treatment) [3]: functionally stable across physiologically-relevant pH and temperature ranges
genotoxic effects, normalized β-galactosidase activity (bacteria): did not exhibit any genotoxic effects
normalized caspase 3/7 activity (HepG2 cells): did not exhibit any caspase activation
Adverse effects (female subjects): 0/32 (0%)

COc1ccc(CCCc2nc3ccccc3[nH]2)cc1 [VII-14, 1H-Benzimidazole, 2-[3-(4-methoxyphenyl)propyl]-]
normalized caspase 3/7 activity (HepG2 cells): did not exhibit any caspase activation
micronuclei formation / genotoxic effect in TK.6 cells (TK.6 lymphoblasts): do not promote any micronuclei formation

CN1C(=O)NC(=O)/C(=C/c2cnc(N(C)C)nc2)C1=O [Compound I-13, 2,4,6(1H,3H,5H)-Pyrimidinetrione, 5-[[2-(dimethylamino)-5-pyrimidinyl]methylene]-1-methyl-]
Percent Increase Proliferation of hFDPCs (%) [1]: A (A represents less than 20% of increased proliferation of hFDPCs)
